Reference: patent publication US8278464B2, “Insecticides” (Syngenta Crop Protection LLC, priority 2006, dated 2012)

Legend:
[1] = system: Spodoptera littoralis (Egyptian Cotton Leafworm); experiment: Activity against Spodoptera littoralis, cotton leaf discs sprayed (Example B1); format: in vivo; settings: foliar, 72 h, L1 larvae, checked 3 days after treatment
Source text: Cotton leaf discs are placed on agar in a 24-well microtiter plate and sprayed with test solutions. After drying, the leaf discs are infested with 5 L1 larvae. The samples are checked for mortality, repellent effect, feeding behaviour, and growth regulation 3 days after treatment (DAT).

[2] = system: Diabrotica balteata (Corn Root Worm); experiment: Activity against Diabrotica balteata, artificial diet MTP (Example B4); format: in vivo; settings: 120 h, L2 larvae, incubation 5 days
Protocol: (§1) 24-well microtiter plate (MTP) with artificial diet is treated with test solutions by pipetting. After drying, the MTP's are infested with larvae (L2) (6-10 per well). After an incubation period of 5 days, samples are checked for larval mortality, antifeedant and growth regulation. In this test, compounds listed in the Tables above show good activity. In particular compounds T13.1.2, T15.1.1, T15.1.91, T13.1.1, T9.1.2 (diastereomer A), T9.1.2 (diastereomer B), T17.1.2 (diastereomer A), T17.1.2 (diastereomer B), T16.1.91, T13.1.92, T13.1.91, T13.1.6, T13.1.96, T44.1.2, T13.1.8, T13.1.23, T13.1.113, T13.1.21, T13.1.111 have an activity of over 80% at 400 ppm.

[3] = system: Spodoptera littoralis (Cotton Leafworm); experiment: Systemic insecticide test for Spodoptera littoralis, maize seedlings, 12.5 ppm (Example B9); format: in vivo; settings: 96 h, 12.5 ppm in water, systemic via maize seedlings, larvae incubated four days
Protocol: Four day old maize seedlings (Zea mais, variety Stoneville) are placed individual in vials containing 24 ml water into which the chemical is diluted at 12.5 ppm. Seedlings are allowed to grow for six days. Subsequently leaves are cut and placed in a Petri dish (5 cm diameter), inoculated with twelve to fifteen 1st instar S. littoralis larvae and incubated for four days in a growth chamber (25° C., 50% r.h., 18:6 L:D photo period). Number of alive insects are counted and percentage of dead calculated. Tests were conducted with one replicate.

[4] = system: Plutella xylostella (Diamond Back Moth); experiment: Activity against Plutella xylostella, artificial diet MTP (Example B3); format: in vivo; settings: 120 h, L2 larvae, incubation 5 days
Protocol: as §1, with “larvae (L2) (10-15 per well).” for “larvae (L2) (6-10 per well).”, “(diastereomer B), T16.1.1, T17.1.2 (diastereomer” for “(diastereomer B), T17.1.2 (diastereomer”, “T16.1.91, T13.1.92, T13.1.361, T13.1.391, T13.1.91, T13.1.6,” for “T16.1.91, T13.1.92, T13.1.91, T13.1.6,”, “T13.1.8, T13.1.23, T13.1.93, T13.1.113, T13.1.21,” for “T13.1.8, T13.1.23, T13.1.113, T13.1.21,”

[5] = system: Heliothis virescens (Tobacco Budworm); experiment: Activity against Heliothis virescens, eggs on artificial diet (Example B2); format: in vivo; settings: 96 h, eggs 0-24 h old, incubation 4 days
Protocol: Eggs (0-24 h old) are placed in 24-well microtiter plate on artificial diet and treated with test solutions by pipetting. After an incubation period of 4 days, samples are checked for egg mortality, larval mortality, and growth regulation.

[6] = system: Myzus persicae (Green Peach Aphid); experiment: Activity against Myzus persicae, systemic, pea seedlings (Example B6); format: in vivo; settings: 144 h, 6 days after introduction
Source text: Roots of pea seedlings, infested with an aphid population of mixed ages, are placed directly in the test solutions. 6 days after introduction, samples are checked for mortality and special effects on the plant.

[7] = system: Thrips tabaci (Onion Thrips); experiment: Activity against Thrips tabaci, sunflower leaf discs (Example B7); format: in vivo; settings: foliar, 144 h, incubation 6 days
Protocol: Sunflower leaf discs are placed on agar in a 24-well microtiter plate and sprayed with test solutions. After drying, the leaf discs are infested with a thrips population of mixed ages. After an incubation period of 6 days, samples are checked for mortality and special effects (e.g. phytotoxicity).

[8] = system: Myzus persicae (Green Peach Aphid); experiment: Activity against Myzus persicae, contact, sunflower leaf discs (Example B5); format: in vivo; settings: foliar, 144 h, 6 DAT
Protocol: Sunflower leaf discs are placed on agar in a 24-well microtiter plate and sprayed with test solutions. After drying, the leaf discs are infested with an aphid population of mixed ages. After an incubation period of 6 DAT, samples are checked for mortality and special effects (e.g. phytotoxicity).

Row | Structure (SMILES) | pest or weed control at 400 ppm [1] [%] | pest or weed control at 400 ppm [2] [%] | pest or weed control at 400 ppm [4] [%] | pest or weed control at 400 ppm [5] [%] | melting point [°C] | also measured
1 | CCC1(NC(=O)c2cc(Cl)cc(C)c2NC(=O)c2cc(OCC(F)(F)F)nn2-c2ncccc2Cl)CS(=O)(=O)C1 [T13.1.23] | > 80 | > 80 | > 80 | > 80 | – | pest or weed control at 12.5 ppm [3]: > 80%
2 | Cc1cc(C#N)cc(C(=O)NC2(C)CS(=O)(=O)C2)c1NC(=O)c1cc(OCC(F)(F)F)nn1-c1ncccc1Cl | – | – | – | – | 216 to 219 | –
3 | Cc1cc(C#N)cc(C(=O)NC2C[S+]([O-])C2)c1NC(=O)c1cc(C(F)F)nn1-c1ncccc1Cl (stereo not shown) | – | – | – | – | 230 to 233 | –
4 | CCC1(NC(=O)c2cc(Cl)cc(C)c2NC(=O)c2cc(C(F)(F)F)nn2-c2ncccc2Cl)CS(=O)(=O)C1 | – | – | – | – | 234 to 236 | –
5 | Cc1cc(Cl)cc(C(=O)NC2CS(=O)(=O)C2)c1NC(=O)c1cc(C(F)(F)F)nn1-c1ncccc1Cl [T13.1.1] | > 80 | > 80 | > 80 | > 80 | – | pest or weed control at 400 ppm [6]: > 80%; pest or weed control at 400 ppm [7]: > 80%; pest or weed control at 12.5 ppm [3]: > 80%
6 | Cc1cc(C#N)cc(C(=O)NC2(C)C[S+]([O-])C2)c1NC(=O)c1cc(C(F)F)nn1-c1ncccc1Cl (stereo not shown) | – | – | – | – | 235 to 237 | –
7 | Cc1cc(C#N)cc(C(=O)NC2(C)C[S+]([O-])C2)c1NC(=O)c1cc(Br)nn1-c1ncccc1Cl (stereo not shown) | – | – | – | – | 244 to 249 | –
8 | Cc1cc(C#N)cc(C(=O)NC2CS(=O)(=O)C2)c1NC(=O)c1cc(C(F)(F)F)nn1-c1ncccc1Cl [T13.1.91] | > 80 | > 80 | > 80 | > 80 | – | pest or weed control at 400 ppm [7]: > 80%; pest or weed control at 400 ppm [8]: > 80%; pest or weed control at 12.5 ppm [3]: > 80%
9 | Cc1cc(Cl)cc(C(=O)NC2CS(=O)(=O)C2(C)C)c1NC(=O)c1cc(C(F)(F)F)nn1-c1ncccc1Cl (stereo not shown) [T15.1.1] | > 80 | > 80 | > 80 | > 80 | – | pest or weed control at 12.5 ppm [3]: > 80%
10 | Cc1cc(Cl)cc(C(=O)NC2CS(=O)(=O)C2)c1NC(=O)c1cc(C(F)F)nn1-c1ncccc1Cl | – | – | – | – | 151 to 155 | –
11 | Cc1cc(C#N)cc(C(=O)NC2CS(=O)(=O)C2)c1NC(=O)c1cc(OCC(F)(F)F)nn1-c1ncccc1Cl [T13.1.111] | > 80 | > 80 | > 80 | > 80 | – | pest or weed control at 400 ppm [7]: > 80%
12 | Cc1cc(Cl)cc(C(=O)NC2(C)CS(=O)(=O)C2)c1NC(=O)c1cc(Br)nn1-c1ncccc1Cl | – | – | – | – | 191 to 193 | –
13 | Cc1cc(Cl)cc(C(=O)NC2C(C)(C)S(=O)(=O)C2(C)C)c1NC(=O)c1cc(C(F)(F)F)nn1-c1ncccc1Cl [T16.1.1] | > 80 | – | > 80 | > 80 | – | –
14 | Cc1cc(C#N)cc(C(=O)NC2(C)C[S+]([O-])C2)c1NC(=O)c1cc(OCC(F)(F)F)nn1-c1ncccc1Cl (stereo not shown) | – | – | – | – | 223 to 225 | –
15 | Cc1cc(Cl)cc(C(=O)NC2(C)CN(Cc3ccccc3)C2)c1NC(=O)c1cc(C(F)(F)F)nn1-c1ncccc1Cl [T44.1.2, 2-(3-chloro-pyridin-2-yl)-5-trifluoromethyl-2H-pyrazole-3-carboxylic acid [4-chloro-2-methyl-6-(3-methyl-N-benzylazetidine-3-ylcarbamoyl)-phenyl]-amide] | > 80 | > 80 | > 80 | > 80 | – | pest or weed control at 400 ppm [7]: > 80%; pest or weed control at 12.5 ppm [3]: > 80%
16 | Cc1cc(Cl)cc(C(=O)NC2(C)C[S+]([O-])C2)c1NC(=O)c1cc(OCC(F)(F)F)nn1-c1ncccc1Cl (stereo not shown) | – | – | – | – | 220 to 222 | –

Row | Structure (SMILES) | pest or weed control at 400 ppm [1] [%] | pest or weed control at 400 ppm [2] [%] | pest or weed control at 400 ppm [4] [%] | pest or weed control at 400 ppm [5] [%] | melting point [°C] | also measured
17 | Cc1cc(Cl)cc(C(=O)NC2(C)C[S+]([O-])C2)c1NC(=O)c1cc(Br)nn1-c1ncccc1Cl (stereo not shown) | – | – | – | – | 244 to 247 | –
18 | Cc1cc(C#N)cc(C(=O)NC2CS(=O)(=O)C2)c1NC(=O)c1cc(C(F)F)nn1-c1ncccc1Cl | – | – | – | – | 158 to 160 | –
19 | CCC1(NC(=O)c2cc(C#N)cc(C)c2NC(=O)c2cc(C(F)(F)F)nn2-c2ncccc2Cl)CS(=O)(=O)C1 [T13.1.93] | > 80 | – | > 80 | > 80 | – | pest or weed control at 400 ppm [6]: > 80%; pest or weed control at 400 ppm [7]: > 80%
20 | Cc1cc(C#N)cc(C(=O)NC2CS(=O)(=O)C2(C)C)c1NC(=O)c1cc(C(F)(F)F)nn1-c1ncccc1Cl (stereo not shown) [T15.1.91] | > 80 | > 80 | > 80 | > 80 | – | pest or weed control at 400 ppm [7]: > 80%; pest or weed control at 400 ppm [8]: > 80%
21 | Cc1cc(Cl)cc(C(=O)NC2CS(=O)(=O)C2)c1NC(=O)c1cc(Br)nn1-c1ncccc1Cl [T13.1.6] | > 80 | > 80 | > 80 | > 80 | – | pest or weed control at 400 ppm [6]: > 80%; pest or weed control at 400 ppm [7]: > 80%; pest or weed control at 12.5 ppm [3]: > 80%
22 | Cc1cc(Cl)cc(C(=O)NC2C[S+]([O-])C2)c1NC(=O)c1cc(C(F)F)nn1-c1ncccc1Cl (stereo not shown) | – | – | – | – | 171 to 173 | –
23 | CCC1(NC(=O)c2cc(C#N)cc(C)c2NC(=O)c2cc(OCC(F)(F)F)nn2-c2ncccc2Cl)CS(=O)(=O)C1 [T13.1.113] | > 80 | > 80 | > 80 | > 80 | – | pest or weed control at 400 ppm [6]: > 80%; pest or weed control at 400 ppm [7]: > 80%; pest or weed control at 12.5 ppm [3]: > 80%
24 | Cc1cc(C#N)cc(C(=O)NC2C(C)(C)S(=O)(=O)C2(C)C)c1NC(=O)c1cc(C(F)(F)F)nn1-c1ncccc1Cl [T16.1.91] | > 80 | > 80 | > 80 | > 80 | – | pest or weed control at 400 ppm [7]: > 80%
25 | Cc1cc(Cl)cc(C(=O)NC2(C)CS(=O)(=O)C2)c1NC(=O)c1cc(OCC(F)(F)F)nn1-c1ncccc1Cl | – | – | – | – | > 250 | –
26 | Cc1cc(Cl)cc(C(=O)NC2C[S+]([O-])C2)c1NC(=O)c1cc(C(F)(F)F)nn1-c1ncccc1Cl (single isomer, unassigned) | – | – | – | – | 241 to 244 | –
27 | CCC1(NC(=O)c2cc(Cl)cc(C)c2NC(=O)c2cc(Br)nn2-c2ncccc2Cl)CS(=O)(=O)C1 [T13.1.8] | > 80 | > 80 | > 80 | > 80 | – | pest or weed control at 12.5 ppm [3]: > 80%
28 | Cc1cc(Cl)cc(C(=O)NC2(C)CS(=O)(=O)C2)c1NC(=O)c1cc(C(F)F)nn1-c1ncccc1Cl | – | – | – | – | 170 to 173 | –
29 | Cc1cc(C#N)cc(C(=O)NC2(C)CS(=O)(=O)C2)c1NC(=O)c1cc(C(F)F)nn1-c1ncccc1Cl | – | – | – | – | 238 to 241 | –
30 | Cc1cccc(C(=O)NC2CS(=O)(=O)C2)c1NC(=O)c1cc(C(F)(F)F)nn1-c1ncccc1Cl [T13.1.361] | > 80 | – | > 80 | > 80 | – | pest or weed control at 12.5 ppm [3]: > 80%
31 | Cc1cc(Cl)cc(C(=O)NC2(C)C[S+]([O-])C2)c1NC(=O)c1cc(C(F)F)nn1-c1ncccc1Cl (stereo not shown) | – | – | – | – | 169 to 173 | –
